# Activity calls are given as the source filed them. The calls are words filed in the database; no cut-off is given here.
# Experiments:
# Rattus norvegicus [1] = experiment: Androgenic activity in ORX Sprague-Dawley rat assessed as restoration of seminal vesicles weight at 0.1 to 1 ug/day delivered at constant rate for 14 days via subcutaneous osmotic pumps; assay type: functional
# Rattus norvegicus [2] = experiment: Anabolic activity in ORX Sprague-Dawley rat assessed as restoration of levator ani muscle weight at 0.1 to 1 ug/day delivered at constant rate for 14 days via subcutaneous osmotic pumps; assay type: functional
# Rattus norvegicus [3] = experiment: Androgenic activity in ORX Sprague-Dawley rat assessed as restoration of prostate weight at 0.1 to 1 ug/day delivered at constant rate for 14 days via subcutaneous osmotic pumps; assay type: functional
# Rattus norvegicus [4] = experiment: Induction of […] bone density in OVX Sprague-Dawley rat at 3 mg/day administered daily by oral gavage measured after 45 days (reference value: 215 mg/mm'3); assay type: functional
# Rattus norvegicus [5] = experiment: Androgenic activity in ORX Sprague-Dawley rat assessed as increase in prostate weight at 0.3 mg/day measured after delayed dosing administered 9 days post ORX via oral gavage for 14 days relative to intact control; assay type: functional
# Homo sapiens [6] = experiment: Effect on tissue fat level in truncal obese human at 30 mg administered daily via mouth for 14 days (reference value: 0.69%); assay type: functional, Adipose tissue
# [7] = Drug uptake in human plasma at 1 to 100 mg administered as PEG300-based solution after 72 hrs; assay type: ADME, cell-free
# Rattus norvegicus [8] = experiment: Androgenic activity in ORX Sprague-Dawley rat assessed as restoration of prostate weight measured after delayed dosing administered 9 days post ORX via oral gavage for 14 days; assay type: functional
# Rattus norvegicus [9] = experiment: Androgenic activity in ORX Sprague-Dawley rat assessed as increase in prostate weight at 0.75 mg/day measured after delayed dosing administered 9 days post ORX via oral gavage for 14 days relative to intact control; assay type: functional
# Rattus norvegicus [10] = experiment: Androgenic activity in intact Sprague-Dawley rat assessed as increase in prostate weight at 0.01 mg/day administered via oral gavage for 14 days relative to intact control; assay type: functional
# Rattus norvegicus [11] = experiment: Androgenic activity in ORX Sprague-Dawley rat assessed as restoration in seminal vesicle weight at 0.01 mg/day measured after delayed dosing administered 9 days post ORX via oral gavage for 14 days relative to intact control; assay type: functional
# Rattus norvegicus [12] = experiment: Effect on serum LH in ORX Sprague-Dawley rat at 0.75 mg/day administered 9 days post ORX via oral gavage for 14 days (reference value: 9.66 +/- 1.13 ng/ml); assay type: functional
# Homo sapiens [13] = experiment: Effect on lean weight level in truncal obese human at 3 mg administered daily via mouth for 14 days (reference value: 436.47 g); assay type: functional
# Rattus norvegicus [14] = experiment: Androgenic activity in ORX Sprague-Dawley rat assessed as restoration in seminal vesicle weight at 1 mg/day measured after delayed dosing administered 9 days post ORX via oral gavage for 14 days relative to intact control; assay type: functional
# Rattus norvegicus [15] = experiment: Reduction in serum cholesterol in male Sprague-Dawley rat at 3 mg/kg, po qd administered for 28 days; assay type: functional; design: scale not given: the % may be the effect or the level left
# Rattus norvegicus [16] = organism: Rattus norvegicus; experiment: Effect on serum FSH in intact Sprague-Dawley rat at 1 mg/day measured for 14 days (reference value: 6.40 +/- 1.58 ng/ml); assay type: functional
# Homo sapiens [17] = experiment: Effect on lean weight level in healthy human at 10 mg administered daily via mouth for 14 days (reference value: 436.47 g); assay type: functional
# Rattus norvegicus [18] = experiment: Androgenic activity in ORX Sprague-Dawley rat assessed as increase in prostate weight at 0.01 mg/day measured after delayed dosing administered 9 days post ORX via oral gavage for 14 days relative to intact control; assay type: functional
# Rattus norvegicus [19] = experiment: Induction of […] bone density in ovary intact Sprague-Dawley rat at 3 mg/day administered daily by oral gavage measured after 45 days (reference value: 379 mg/mm'3); assay type: functional
# Rattus norvegicus [20] = experiment: Effect on serum LH in ORX Sprague-Dawley rat at 1 mg/day administered 9 days post ORX via oral gavage for 14 days (reference value: 9.66 +/- 1.13 ng/ml); assay type: functional
# Homo sapiens [21] = experiment: Effect on lean weight level in truncal obese human at 30 mg administered daily via mouth for 14 days (reference value: 436.47 g); assay type: functional
# [22] = Terminal half life in human at 1 to 100 mg administered as PEG300-based solution after 72 hrs; assay type: ADME; details: in vivo, read-out: beta t1/2
# Homo sapiens [23] = experiment: Effect on regional fat level in healthy human at 1 mg administered daily via mouth for 14 days (reference value: 0.64%); assay type: functional
# Rattus norvegicus [24] = experiment: Effect on serum FSH in ORX Sprague-Dawley rat at 0.1 mg/day administered 9 days post ORX via oral gavage for 14 days (reference value: 43.45 +/- 4.97 ng/ml); assay type: functional
# Rattus norvegicus [25] = experiment: Reduction in serum cholesterol in female Sprague-Dawley rat at 100 mg/kg, po qd administered for 28 days; assay type: functional, organism-based
# Rattus norvegicus [26] = organism: Rattus norvegicus; experiment: Effect on serum LH in intact Sprague-Dawley rat at 1 mg/day measured for 14 days (reference value: 0.281 +/- 0.126 ng/ml); assay type: functional
# Homo sapiens [27] = experiment: Effect on fat weight in healthy human at 10 mg administered daily via mouth for 14 days (reference value: 436 g); assay type: functional
# Rattus norvegicus [28] = experiment: Anabolic activity in ORX Sprague-Dawley rat assessed as increase in levator ani muscle weight at 0.1 mg/day measured after delayed dosing administered 9 days post ORX via oral gavage for 14 days relative to intact control; assay type: functional
# Rattus norvegicus [29] = organism: Rattus norvegicus; experiment: Effect on serum LH in intact Sprague-Dawley rat at 0.1 mg/day measured for 14 days (reference value: 0.281 +/- 0.126 ng/ml); assay type: functional
# Rattus norvegicus [30] = experiment: Effect on serum FSH in ORX Sprague-Dawley rat at 1 mg/day administered 9 days post ORX via oral gavage for 14 days (reference value: 43.45 +/- 4.97 ng/ml); assay type: functional
# [31] = Tmax in human plasma at 1 to 100 mg administered as PEG300-based oral solution; assay type: ADME, cell-free
# Bone marrow cell [32] = experiment: Induction of differentiation of rat primary bone marrow cells toward osteoblast lineage assessed as ALP activity at 10 nM to 100 nM by spectrophotometric analysis; assay type: functional, cell-based
# Homo sapiens [33] = experiment: Effect on tissue fat level in healthy human at 10 mg administered daily via mouth for 14 days (reference value: 0.69%); assay type: functional, Adipose tissue
# Homo sapiens [34] = experiment: Effect on lean weight level in healthy human at 3 mg administered daily via mouth for 14 days (reference value: 436.47 g); assay type: functional
# Homo sapiens [35] = experiment: Effect on regional fat level in healthy human at 3 mg administered daily via mouth for 14 days (reference value: 0.64%); assay type: functional
# Rattus norvegicus [36] = organism: Rattus norvegicus; experiment: Effect on serum FSH in intact Sprague-Dawley rat at 0.1 mg/day measured for 14 days (reference value: 6.40 +/- 1.58 ng/ml); assay type: functional
# Bone marrow cell [37] = experiment: Induction of differentiation of rat primary bone marrow cells toward osteoblast lineage assessed as ALP activity at 1 uM by spectrophotometric analysis; assay type: functional, cell-based
# Homo sapiens [38] = experiment: Effect on tissue weight in healthy human at 10 mg administered daily via mouth for 14 days (reference value: -8.24 g); assay type: functional
# Homo sapiens [39] = experiment: Effect on tissue weight in healthy human at 3 mg administered daily via mouth for 14 days (reference value: -8.24 g); assay type: functional
# Rattus norvegicus [40] = experiment: Androgenic activity in ORX Sprague-Dawley rat assessed as restoration in seminal vesicle weight at 0.3 mg/day measured after delayed dosing administered 9 days post ORX via oral gavage for 14 days relative to intact control; assay type: functional
# Homo sapiens [41] = experiment: Effect on regional fat level in healthy human at 30 mg administered daily via mouth for 14 days (reference value: 0.64%); assay type: functional
# Rattus norvegicus [42] = experiment: Increase in femoral maximum load in OVX Sprague-Dawley rat at 3 mg/day administered daily co-treated with 1 mg/day alendronate by oral gavage measured after 45 days; assay type: functional
# [43] = Tmax in human plasma at 1 to 100 mg administered as solid oral dosage; assay type: ADME, cell-free
# Homo sapiens [44] = experiment: Effect on bone mineral content in healthy human at 3 mg administered daily via mouth for 14 days (reference value: 36.47 g); assay type: functional
# Homo sapiens [45] = experiment: Effect on fat weight in healthy human at 1 mg administered daily via mouth for 14 days (reference value: 436 g); assay type: functional
# Homo sapiens [46] = experiment: Effect on fat weight in healthy human at 3 mg administered daily via mouth for 14 days (reference value: 436 g); assay type: functional
# Rattus norvegicus [47] = experiment: Effect on serum LH in ORX Sprague-Dawley rat at 0.3 mg/day administered 9 days post ORX via oral gavage for 14 days (reference value: 9.66 +/- 1.13 ng/ml); assay type: functional
# Rattus norvegicus [48] = experiment: Effect on serum LH in ORX Sprague-Dawley rat at 0.01 mg/day administered 9 days post ORX via oral gavage for 14 days (reference value: 9.66 +/- 1.13 ng/ml); assay type: functional
# Rattus norvegicus [49] = organism: Rattus norvegicus; experiment: Effect on serum LH in intact Sprague-Dawley rat at 0.3 mg/day measured for 14 days (reference value: 0.281 +/- 0.126 ng/ml); assay type: functional
# Rattus norvegicus [50] = experiment: Anabolic activity in ORX Sprague-Dawley rat assessed as restoration of levator ani muscle weight measured after delayed dosing administered 9 days post ORX via oral gavage for 14 days; assay type: functional
# Rattus norvegicus [51] = organism: Rattus norvegicus; experiment: Effect on serum LH in intact Sprague-Dawley rat at 0.75 mg/day measured for 14 days (reference value: 0.281 +/- 0.126 ng/ml); assay type: functional
# Rattus norvegicus [52] = experiment: Androgenic activity in ORX Sprague-Dawley rat assessed as restoration in seminal vesicle weight at 0.03 mg/day measured after delayed dosing administered 9 days post ORX via oral gavage for 14 days relative to intact control; assay type: functional
# Rattus norvegicus [53] = organism: Rattus norvegicus; experiment: Effect on serum FSH in intact Sprague-Dawley rat at 0.75 mg/day measured for 14 days (reference value: 6.40 +/- 1.58 ng/ml); assay type: functional
smiles,measurement,setting,value
C[C@](O)(COc1ccc(I)cc1)C(=O)Nc1ccc([N+](=O)[O-])c(C(F)(F)F)c1,Activity,Rattus norvegicus [1],<40%
same,Activity,Rattus norvegicus [2],Active
same,Activity,Rattus norvegicus [3],<40%
C[C@](O)(COc1ccc(Br)cc1)C(=O)Nc1ccc([N+](=O)[O-])c(C(F)(F)F)c1,Activity,Rattus norvegicus [1],<40%
same,Activity,Rattus norvegicus [2],Active
same,Activity,Rattus norvegicus [3],<40%
CC(O)(COc1ccc(C#N)cc1)C(=O)Nc1ccc(C#N)c(C(F)(F)F)c1 (stereo not given),Activity,Rattus norvegicus [4],406 mg/mm3
same,Activity,Rattus norvegicus [5],50%
same,Activity,Homo sapiens [6],-0.13%
same,Drug uptake,[7],Active
same,ED50,Rattus norvegicus [8],0.22 mg/kg
same,Emax,Rattus norvegicus [8],75%
same,Activity,Rattus norvegicus [9],62%
same,Activity,Rattus norvegicus [10],Active
same,Activity,Rattus norvegicus [11],7%
same,Activity,Rattus norvegicus [12],Below limit of detection
same,Activity,Homo sapiens [13],1569.44 g
same,Activity,Rattus norvegicus [14],67%
same,Activity,Rattus norvegicus [15],30%
same,Activity,Rattus norvegicus [16],4.38 ng/mL
same,Activity,Homo sapiens [17],368.67 g
same,Activity,Rattus norvegicus [18],9%
same,Activity,Rattus norvegicus [19],398 mg/mm3
same,Activity,Rattus norvegicus [20],Below limit of detection
same,Activity,Homo sapiens [21],261 g
same,half-life,[22],19 to 22 h
same,Activity,Homo sapiens [23],0.23%
same,Activity,Rattus norvegicus [24],20.69 ng/mL
same,Activity,Rattus norvegicus [25],Active
same,Activity,Rattus norvegicus [26],Below limit of detection
same,Activity,Homo sapiens [27],197.44 g
same,Activity,Rattus norvegicus [28],103%
same,Activity,Rattus norvegicus [29],0.177 ng/mL
same,Activity,Rattus norvegicus [30],6.33 ng/mL
same,Tmax,[31],0.8 to 2.3 h
same,Activity,Bone marrow cell [32],Active
same,Activity,Homo sapiens [33],0.1%
same,Activity,Homo sapiens [34],752.11 g
same,Activity,Homo sapiens [35],-0.22%
same,Activity,Rattus norvegicus [36],6.6 ng/mL
same,Activity,Bone marrow cell [37],Active
same,Activity,Homo sapiens [38],566.22 g
same,Activity,Homo sapiens [39],728.89 g
same,Activity,Rattus norvegicus [40],49%
same,Activity,Homo sapiens [41],0.95%
same,Activity,Rattus norvegicus [42],207 N
same,Tmax,[43],3.2 to 3.9 h
same,Activity,Homo sapiens [44],-32.22 g
same,Activity,Homo sapiens [45],197.89 g
same,Activity,Homo sapiens [46],-22.67 g
same,Activity,Rattus norvegicus [47],Below limit of detection
same,Activity,Rattus norvegicus [48],8.45 ng/mL
same,Activity,Rattus norvegicus [49],Below limit of detection
same,ED50,Rattus norvegicus [50],0.013 mg/kg
same,Activity,Rattus norvegicus [51],Below limit of detection
same,Activity,Rattus norvegicus [52],9%
same,Activity,Rattus norvegicus [53],4.3 ng/mL
C[C@](O)(COc1ccc(Cl)cc1)C(=O)Nc1ccc([N+](=O)[O-])c(C(F)(F)F)c1,Activity,Rattus norvegicus [1],<20%
same,Activity,Rattus norvegicus [2],Active
same,Activity,Rattus norvegicus [3],<20%

# Reference: ChEMBL document CHEMBL3881526, “Selective androgen receptor modulators and method of use thereof” (2007)
